# Test results: the supplement of paper PMC11451515
# Test system: P12-Ichikawa
# Experiment: cell viability relative to DMSO control; higher = less cytotoxic
# Settings: 48 h
# Summary of the method: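 Viability values are per-plate percentages of DMSO wells, with background from cell-free wells. Library compounds in DMSO were pin-dosed, in an 11-point threefold series from 47 μM to 0.79 nM, onto NOMO1 or SEM (500 cells/well) or P12-Ichikawa (1000 cells/well) leukemia cells in 1536-well plates (5 μl). Those cells had been adapted for at least four passages in each medium, and CellTiter-Glo One luminescence was read after 48 h at 37°C.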
# [1] = HPLM + 10% dialyzed FBS, 0.000781 µM
# [2] = HPLM + 10% dialyzed FBS, 0.00234 µM
# [3] = HPLM + 10% dialyzed FBS, 0.00702 µM
# [4] = HPLM + 10% dialyzed FBS, 0.0211 µM
# [5] = HPLM + 10% dialyzed FBS, 0.0632 µM
# [6] = HPLM + 10% dialyzed FBS, 0.19 µM
# [7] = HPLM + 10% dialyzed FBS, 0.569 µM
# [8] = HPLM + 10% dialyzed FBS, 1.71 µM
# [9] = HPLM + 10% dialyzed FBS, 5.12 µM
# [10] = HPLM + 10% dialyzed FBS, 15.4 µM
# [11] = HPLM + 10% dialyzed FBS, 46.1 µM
# [12] = RPMI 5 mM glucose + 10% FBS, 0.000781 µM
# [13] = RPMI 5 mM glucose + 10% FBS, 0.00234 µM
# [14] = RPMI 5 mM glucose + 10% FBS, 0.00702 µM
# [15] = RPMI 5 mM glucose + 10% FBS, 0.0211 µM
# [16] = RPMI 5 mM glucose + 10% FBS, 0.0632 µM
# [17] = RPMI 5 mM glucose + 10% FBS, 0.19 µM
# [18] = RPMI 5 mM glucose + 10% FBS, 0.569 µM
# [19] = RPMI 5 mM glucose + 10% FBS, 1.71 µM
# [20] = RPMI 5 mM glucose + 10% FBS, 5.12 µM
# [21] = RPMI 5 mM glucose + 10% FBS, 15.4 µM
# [22] = RPMI 5 mM glucose + 10% FBS, 46.1 µM
# [23] = RPMI 5 mM glucose + 10% dialyzed FBS, 0.000781 µM
# [24] = RPMI 5 mM glucose + 10% dialyzed FBS, 0.00234 µM
# [25] = RPMI 5 mM glucose + 10% dialyzed FBS, 0.00702 µM
# [26] = RPMI 5 mM glucose + 10% dialyzed FBS, 0.0211 µM
# [27] = RPMI 5 mM glucose + 10% dialyzed FBS, 0.0632 µM
# [28] = RPMI 5 mM glucose + 10% dialyzed FBS, 0.19 µM
# [29] = RPMI 5 mM glucose + 10% dialyzed FBS, 0.569 µM
# [30] = RPMI 5 mM glucose + 10% dialyzed FBS, 1.71 µM
# [31] = RPMI 5 mM glucose + 10% dialyzed FBS, 5.12 µM
# [32] = RPMI 5 mM glucose + 10% dialyzed FBS, 15.4 µM
# [33] = RPMI 5 mM glucose + 10% dialyzed FBS, 46.1 µM
compound,measurement,setting,value
C[C@H]1O[C@H](C[C@H](O)[C@@H]1O)O[C@H]2[C@@H](O)C[C@@H](O[C@@H]2C)O[C@H]3[C@@H](O)C[C@@H](O[C@@H]3C)O[C@H]4CC[C@@]5(C)[C@H](CC[C@@H]6[C@@H]5C[C@@H](O)[C@]7(C)[C@H](CC[C@]67O)C/8=C/C(=O)OC8)C4,cell viability,[1],116%
same,cell viability,[2],128%
same,cell viability,[3],123%
same,cell viability,[4],111%
same,cell viability,[5],33.5%
same,cell viability,[6],13.3%
same,cell viability,[7],12.7%
same,cell viability,[8],12.8%
same,cell viability,[9],14.3%
same,cell viability,[10],20.5%
same,cell viability,[11],17.2%
same,cell viability,[12],115%
same,cell viability,[13],123%
same,cell viability,[14],124%
same,cell viability,[15],110%
same,cell viability,[16],86.5%
same,cell viability,[17],58.1%
same,cell viability,[18],12.3%
same,cell viability,[19],10.4%
same,cell viability,[20],9.93%
same,cell viability,[21],12.4%
same,cell viability,[22],11.7%
same,cell viability,[23],113%
same,cell viability,[24],111%
same,cell viability,[25],117%
same,cell viability,[26],110%
same,cell viability,[27],76.4%
same,cell viability,[28],32.5%
same,cell viability,[29],13.3%
same,cell viability,[30],10.7%
same,cell viability,[31],8.02%
same,cell viability,[32],8.92%
same,cell viability,[33],6.92%
CN1CCN(CCCN2c3ccccc3Sc3ccc(C(F)(F)F)cc32)CC1,cell viability,[1],100%
same,cell viability,[2],105%
same,cell viability,[3],105%
same,cell viability,[4],108%
same,cell viability,[5],106%
same,cell viability,[6],111%
same,cell viability,[7],117%
same,cell viability,[8],119%
same,cell viability,[9],111%
same,cell viability,[10],42%
same,cell viability,[11],12.4%
same,cell viability,[12],101%
same,cell viability,[13],108%
same,cell viability,[14],109%
same,cell viability,[15],109%
same,cell viability,[16],119%
same,cell viability,[17],119%
same,cell viability,[18],113%
same,cell viability,[19],116%
same,cell viability,[20],112%
same,cell viability,[21],34.1%
same,cell viability,[22],13.8%
same,cell viability,[23],94.8%
same,cell viability,[24],105%
same,cell viability,[25],99.6%
same,cell viability,[26],104%
same,cell viability,[27],106%
same,cell viability,[28],105%
same,cell viability,[29],112%
same,cell viability,[30],123%
same,cell viability,[31],115%
same,cell viability,[32],93.8%
same,cell viability,[33],39.4%
Cc1onc(-c2ccccc2)c1C(=O)N[C@@H]1C(=O)N2[C@@H]1SC(C)(C)[C@@H]2C(=O)[O-].[Na+],cell viability,[1],109%
same,cell viability,[2],116%
same,cell viability,[3],120%
same,cell viability,[4],108%
same,cell viability,[5],116%
same,cell viability,[6],113%
same,cell viability,[7],113%
same,cell viability,[8],104%
same,cell viability,[9],86.4%
same,cell viability,[10],81.3%
same,cell viability,[11],77.2%
same,cell viability,[12],114%
same,cell viability,[13],117%
same,cell viability,[14],111%
same,cell viability,[15],111%
same,cell viability,[16],130%
same,cell viability,[17],122%
same,cell viability,[18],112%
same,cell viability,[19],85.3%
same,cell viability,[20],71%
same,cell viability,[21],71.8%
same,cell viability,[22],68.2%
same,cell viability,[23],104%
same,cell viability,[24],112%
same,cell viability,[25],131%
same,cell viability,[26],139%
same,cell viability,[27],123%
same,cell viability,[28],100%
same,cell viability,[29],92.7%
same,cell viability,[30],89.6%
same,cell viability,[31],75.9%
same,cell viability,[32],62.4%
same,cell viability,[33],67.8%
CNC(=O)Nc1ccc(-c2nc(N3CC4CCC(C3)O4)c3cnn(C4CCC5(CC4)OCCO5)c3n2)cc1,cell viability,[1],107%
same,cell viability,[2],106%
same,cell viability,[3],95.7%
same,cell viability,[4],92.5%
same,cell viability,[5],95.4%
same,cell viability,[6],82.7%
same,cell viability,[7],86.1%
same,cell viability,[8],76.7%
same,cell viability,[9],74.2%
same,cell viability,[10],74.9%
same,cell viability,[11],72.5%
same,cell viability,[12],96.9%
same,cell viability,[13],84.1%
same,cell viability,[14],75.8%
same,cell viability,[15],75.5%
same,cell viability,[16],69.8%
same,cell viability,[17],65.8%
same,cell viability,[18],64.2%
same,cell viability,[19],60.8%
same,cell viability,[20],57.1%
same,cell viability,[21],49.6%
same,cell viability,[22],53%
same,cell viability,[23],106%
same,cell viability,[24],98%
same,cell viability,[25],91.1%
same,cell viability,[26],82.1%
same,cell viability,[27],81.8%
same,cell viability,[28],70.5%
same,cell viability,[29],67.4%
same,cell viability,[30],65.2%
same,cell viability,[31],56.8%
same,cell viability,[32],44.8%
same,cell viability,[33],50.9%
CNC(=O)[C@H](CC/1=C/N=C\2/C=C\C\C=C12)NC(=O)[C@H](CC(C)C)CC(=O)NO,cell viability,[1],116%
same,cell viability,[2],108%
same,cell viability,[3],103%
same,cell viability,[4],99.5%
same,cell viability,[5],116%
same,cell viability,[6],111%
same,cell viability,[7],116%
same,cell viability,[8],105%
same,cell viability,[9],108%
same,cell viability,[10],30.9%
same,cell viability,[11],29.8%
same,cell viability,[12],99.5%
same,cell viability,[13],107%
same,cell viability,[14],98%
same,cell viability,[15],102%
same,cell viability,[16],108%
same,cell viability,[17],108%
same,cell viability,[18],113%
same,cell viability,[19],106%
same,cell viability,[20],97.9%
same,cell viability,[21],28.4%
same,cell viability,[22],33.3%
same,cell viability,[23],105%
same,cell viability,[24],107%
same,cell viability,[25],107%
same,cell viability,[26],112%
same,cell viability,[27],115%
same,cell viability,[28],114%
same,cell viability,[29],114%
same,cell viability,[30],105%
same,cell viability,[31],107%
same,cell viability,[32],24.7%
same,cell viability,[33],32.1%
NC/1=N/C(=O)N(/C=N1)[C@@H]2O[C@H](CO)[C@@H](O)[C@H]2O,cell viability,[1],108%
same,cell viability,[2],104%
same,cell viability,[3],102%
same,cell viability,[4],107%
same,cell viability,[5],85.2%
same,cell viability,[6],114%
same,cell viability,[7],104%
same,cell viability,[8],109%
same,cell viability,[9],77%
same,cell viability,[10],55.1%
same,cell viability,[11],22.6%
same,cell viability,[12],107%
same,cell viability,[13],102%
same,cell viability,[14],102%
same,cell viability,[15],98.7%
same,cell viability,[16],88.1%
same,cell viability,[17],113%
same,cell viability,[18],104%
same,cell viability,[19],107%
same,cell viability,[20],91.1%
same,cell viability,[21],59%
same,cell viability,[22],43.2%
same,cell viability,[23],97.1%
same,cell viability,[24],107%
same,cell viability,[25],114%
same,cell viability,[26],116%
same,cell viability,[27],94.7%
same,cell viability,[28],103%
same,cell viability,[29],105%
same,cell viability,[30],104%
same,cell viability,[31],89.6%
same,cell viability,[32],56%
same,cell viability,[33],26.8%
CO/N=C(/C(=O)N[C@@H]1C(=O)N2C(C(=O)O)=C(CSC(=O)c3ccco3)CS[C@H]12)c1csc(N)n1,cell viability,[1],100%
same,cell viability,[2],108%
same,cell viability,[3],112%
same,cell viability,[4],119%
same,cell viability,[5],109%
same,cell viability,[6],111%
same,cell viability,[7],116%
same,cell viability,[8],118%
same,cell viability,[9],113%
same,cell viability,[10],109%
same,cell viability,[11],110%
same,cell viability,[12],98.1%
same,cell viability,[13],100%
same,cell viability,[14],117%
same,cell viability,[15],107%
same,cell viability,[16],105%
same,cell viability,[17],106%
same,cell viability,[18],98.6%
same,cell viability,[19],104%
same,cell viability,[20],98.9%
same,cell viability,[21],103%
same,cell viability,[22],96.2%
same,cell viability,[23],95.6%
same,cell viability,[24],104%
same,cell viability,[25],112%
same,cell viability,[26],108%
same,cell viability,[27],112%
same,cell viability,[28],109%
same,cell viability,[29],104%
same,cell viability,[30],103%
same,cell viability,[31],102%
same,cell viability,[32],107%
same,cell viability,[33],104%
